Patent US20260174778A1, “SULFONAMIDE COMPOUND, AND PREPARATION METHOD THEREFOR AND USE THEREOF” (SHANGHAI HENLIUS BIOTECH, INC., priority 2023, published 2026)

Tested on: human breast cancer ZR-75-1 cell xenograft tumor
Assay: Anti-tumor effect in ER+KAT6high breast cancer cell xenograft tumor model (Test Example 6)
Assay type: in vivo, Balb/c nude mice
Conditions: for T/C / TGI / mean tumor volume: day 34; for efficacy compared to PF-8144: 0.1 mg/kg and 0.3 mg/kg PO QD; for body weight changes compared to the PF-8144 group: all doses (0.1, 0.3 mg/kg)
Procedure: Test Example 6: Anti-Tumor Effects of Test Compounds in ER^+KAT6^high Breast Cancer Cell-Xenograft Tumor Model
Assay method: ZR-75-1 cells were subcutaneously inoculated into the right back of each mouse to evaluate the efficacy of the compounds in the subcutaneous xenograft tumor model of ZR-75-1 cells.
• 1. Cell culture: ZR-75-1 cells were cultured as a monolayer in vitro under the following culture conditions: an RPMI 1640 medium supplemented with 10% fetal bovine serum and 1% Anti-anti (Antibiotic-Antimycotic), incubated in an incubator at 37° C. with 5% CO2. The cells were digested with trypsin-EDTA twice a week for passaging as per conventional practice. When the cell saturation reached 80%-90% and the quantity met the requirement, the cells were harvested, counted, and inoculated. • 2. Animals: Balb/c nude mice, female, 6-8 weeks old, weighing 18-22 g. A total of 115 mice were required (72 mice were enrolled). They were provided by Vital River or other qualified suppliers. • 3. Tumor inoculation: Two days before tumor inoculation, 17-beta estradiol tablets (0.18 mg) were subcutaneously administered, and 10 million ZR-75-1 tumor cells+matrigel (total […]) were subcutaneously inoculated into the right back of each mouse. When the mean tumor volume reached about 131 mm^3, the mice were grouped for administration. • 4. Experimental administration: The compounds were dissolved in 5% DMSO+5% Tween 80+90% Saline or 10% DMSO+10% Solutol+80% (10% HPP-CD in saline), and administered intragastrically (PO) daily for five weeks. • 5. Experimental indicators: The experimental indicators were to investigate whether the tumor growth was inhibited or delayed or the tumor was cured. Tumor diameters were measured twice weekly using a vernier caliper. The tumor volume was calculated using the following formula: V=0.5a×b^2, where a and b represent the long diameter and short diameter of the tumor, respectively. • 6. The anti-tumor efficacy of the compounds was evaluated by TGI (%) or relative tumor proliferation rate T/C (%). TGI (%) refers to the tumor growth inhibition rate. Calculation of TGI (%):TGI (%)=[(1−(mean tumor volume at the end of administration in a treatment group—mean tumor volume at the start of administration in the treatment group))/(mean tumor volume at the end of treatment in the solvent control group—mean tumor volume at the start of treatment in the solvent control group)]×100%. The calculation formula for the relative tumor proliferation rate T/C (%) was as follows: T/C %=TRTV/CRTV×100% (TRTV:RTV of the treatment group; CRTV:RTV of the negative control group). The relative tumor volume (RTV) was calculated based on the tumor measurement results using the following formula: RTV=Vt/V0, where V0 represents the mean tumor volume measured at the time of grouping for administration (i.e., PG-DO), and Vt represents the mean tumor volume at a certain measurement. TRTV and CRTV were derived from data measured on the same day.
The mean and standard error of mean (SEM) of tumor volume at each time point for each group were included. The differences in tumor volume and tumor weight among the groups were statistically analyzed. For comparisons among three or more groups, one-way ANOVA was used for analysis. […] The analysis was performed using SPSS 17.0, and p<0.05 was considered to indicate a significant difference.
For comparisons between different doses of the same drug or different drugs at the same dose, two-way ANOVA was used for analysis, and the Bonferroni method was applied for testing. The analysis was performed using GraphPad Prism 9.0, and p<0.05 was considered to indicate a significant difference. On day 34 after the start of administration, the data between different doses of the same drug or different drugs at the same dose were analyzed using one-way ANOVA. […] The analysis was performed using SPSS 17.0, and p<0.05 was considered to indicate a significant difference.

| SMILES | T/C (0.1 mg/kg PO QD) [%] | TGI (0.1 mg/kg PO QD) [%] | mean tumor volume (0.1 mg/kg PO QD) [mm^3] | efficacy compared to PF-8144 | T/C (0.3 mg/kg PO QD) [%] | TGI (0.3 mg/kg PO QD) [%] | mean tumor volume (0.3 mg/kg PO QD) [mm^3] | body weight changes compared to the PF-8144 group |
| --- | --- | --- | --- | --- | --- | --- | --- | --- |
| COc1ccc2c(c1S(=O)(=O)Nc1noc3cc(Cn4cccn4)c(F)c(OC)c13)OCCC2=O [Compound 42, N-(6-((1H-Pyrazol-1-yl)methyl)-5-fluoro-4-methoxybenzo[d]isoxazol-3-yl)-7-methoxy-4-oxochromane-8-sulfonamide] | 3.9 | 108.67 | 44 | significantly superior in efficacy to PF-8144 | 2.2 | 110.58 | 25 | no statistically significant difference |
| COc1ccc2c(c1S(=O)(=O)Nc1noc3cc(Cn4cccn4)c(F)c(OC)c13)OCCCO2 [Compound 114, N-(6-((1H-Pyrazol-1-yl)methyl)-5-fluoro-4-methoxybenzo[d]isoxazol-3-yl)-7-methoxy-3,4-dihydro-2H-benzo[b][1,4]dioxepine-6-sulfonamide] | 35.8 | 72.61 | 403 |  | 10.5 | 101.21 | 119 | no statistically significant difference |
| COc1ccc2c(c1S(=O)(=O)Nc1noc3cc(Cn4cccn4)c(F)c(OC)c13)OCCCN2C [Compound 115, N-(6-((1H-Pyrazol-1-yl)methyl)-5-fluoro-4-methoxybenzo[d]isoxazol-3-yl)-8-methoxy-5-methyl-2,3,4,5-tetrahydrobenzo[b][1,4]oxazepine-9-sulfonamide] | 8.6 | 103.38 | 97 | significantly superior in efficacy to PF-8144 | 2.4 | 110.47 | 27 | no statistically significant difference |
| COc1ccccc1S(=O)(=O)Nc1noc2cc(Cn3cccn3)cc(OC)c12 [PF-8144, reference compound] | 36.2 | 72.2 | 407 |  | 19.5 | 91.07 | 220 |  |
